Results from article PMC11225352, “A multicenter, randomized, double-blind, placebo-controlled ascending dose study to evaluate the safety, tolerability, pharmacokinetics (PK) and pharmacodynamic (PD) effects of Posiphen in subjects with early Alzheimer’s Disease” (Alzheimer's Research & Therapy, 2024).

Tests used:
sAPPβ = experiment: CSF sAPPβ level, screening to day 21 (MSD immunoassay); type: in vivo, human; details: ANOVA with age and sex as covariates; p = 0.16
Procedure: For biochemical analysis to derive data for SILK, ^13C6-leucine was analyzed in plasma and CSF by mass spectrometry, and Aβ peptides in CSF were analyzed by immunoprecipitation-mass spectrometry (IP-MS) as previously described, by C2N Diagnostics (St Louis, MO). CSF levels of sAPPα, sAPPβ, Aβ38, 40 and 42 were analyzed by the ADCS Biomarker Core using Mesoscale Discovery (MSD) electrochemiluminescent assays (Mesoscale Discovery, Rockville, MD). Levels of Posiphen and its N1 and N8 metabolites in plasma and CSF were measured by Charles River Laboratories (Montreal, CA) by high-performance liquid chromatographic mass spectrometry, with use of deuterated Posiphen (procured by Charles River Laboratories) as an internal standard.
(§1) Changes in CSF biomarkers from the screening to confinement (sample at time of placement of catheter) were compared in the treatment and placebo groups by ANOVA, with models that included age, sex and baseline MMSE, and further analysis stratified by treatment dose. A similar approach was taken to analyze changes in MMSE, ADAS-cog and NPI. Data were analyzed using R (version 4.2.2).

[1] = system: sAPPα, sAPPβ and total tau; set-up: method as in PMID 22791904; details: four MCI subjects, 60 mg four times per day for 10 days; cited from earlier work
[2] = Cognitive and behavioral outcomes (ADAS-cog12, MMSE, NPI); type: in vivo, human
Excerpt: The screening visit included history, examination, review of medical records and medications, vital signs, physical and neurological examination, cognitive testing with the MMSE and Logical Memory test (Wechsler Memory Scale-revised), EKG, blood draw for routine laboratory tests, lumbar puncture and if needed, brain MRI. If eligible, participants underwent a baseline visit, with cognitive assessment using the MMSE and ADAS-cog12, behavioral assessments, Research Satisfaction Survey, safety assessments, and review of concurrent medications and adverse events, and they received a supply of the study drug (or placebo), which they started the day after the baseline visit. A telephone assessment was done at day 14 after baseline, to assess adverse events, concomitant medication changes and remind participants/study partners about the confinement visit. A pre-confinement visit took place 1–3 days before the confinement visit, following treatment for 20 days, and included physical and neurological examination, cognitive and behavioral assessments (see below), safety assessments (including clinical safety labs), and a review of compliance, concurrent medications and adverse events. The study drug or placebo was continued until the day before the confinement visit.
Safety measures included adverse events, vital signs, EKG and laboratory tests. The Mini-Mental State Examination (MMSE), Alzheimer’s Disease Assessment Scale-cognitive (ADAS-cog12) and Neuropsychiatric Inventory (NPI) were used as cognitive and behavioral outcomes,.
as §1

cholinesterase = system: cholinesterase; set-up: method as in PMID 11404470; details: cited from earlier work

SMILES: CN1CC[C@]2(C)c3cc(OC(=O)Nc4ccccc4)ccc3N(C)[C@H]12 [Posiphen]
- CSF sAPPβ, Treatment difference (Posiphen – placebo) (sAPPβ): 47.9 (31.6) p = 0.16 pg/mL
- mean CSF sAPPα, sAPPβ and total tau at 10 days compared to pretreatment [1]: decreased
- NPI, mean change from baseline to pre-confinement ([2]; Posiphen (n = 11), mITT, baseline 8.36 ± 9.52): -0.45 ± 7.01
- MMSE, Pre-confinement ([2]; Posiphen (n = 11), mITT, baseline 24.36 ± 2.8): 24.18 ± 2.52
- ADAS-Cog12, Pre-confinement ([2]; Posiphen (n = 11), mITT, baseline 25.73 ± 8.76): 25.18 ± 5.33
- ADAS-cog, MMSE or NPI total scores, change from baseline to pre-confinement visit ([2]; Posiphen or placebo groups): no significant changes
- MMSE, Mean change ([2]; baseline to pre-confinement, Posiphen (n = 11), placebo 1.14 ± 2.12): -0.18 ± 2.09
- ADAS-Cog12, Mean change ([2]; baseline to pre-confinement, Posiphen (n = 11), placebo -1.57 ± 5.19): -0.55 ± 6.04
- ADAS-cog change, t ([2]; contrast 60 mg – placebo, multiple linear regression (age, sex, APOE genotype, baseline score, arm), p 0.68): 0.42
- MMSE change, t ([2]; contrast 60 mg – placebo, multiple linear regression, p 0.006): -3.32
- NPI change, t ([2]; contrast 60 mg – placebo, multiple linear regression, p 0.51): 0.68
- NPI change, t ([2]; contrast 120 mg - placebo, multiple linear regression, p 0.02): 2.73
- MMSE change, t ([2]; contrast 120 mg - placebo, multiple linear regression, p 0.24): 1.2
- ADAS-cog change, t ([2]; contrast 120 mg - placebo, multiple linear regression, p 0.30): 1.1
- ADAS-cog change, t ([2]; contrast 180 mg - placebo, multiple linear regression, p 0.77): 029
- NPI change, t ([2]; contrast 180 mg - placebo, multiple linear regression, p 0.91): 0.12
- NPI, Treatment difference (Posiphen – placebo) ([2]; mITT, p = 0.11): 7.10 ± 4.07 p = 0.11
- ADAS-Cog12, Treatment difference (Posiphen – placebo) ([2]; mITT, p = 0.32): 3.00 ± 2.94 p = 0.32
- MMSE, Treatment difference (Posiphen – placebo) ([2]; mITT, p= 0.23): -1.6 ± 1.28 p= 0.23
- anticholinesterase activity (cholinesterase): does not
